The source of these data is US11661397B2, “1,4-disubstituted imidazole derivative” (Sumitomo Pharma Co., Ltd., priority 2015, dated 2023).

Each structure is given as a SMILES string.

For experiment [1], the system named is HCT-116 cells. The experiment in a line: Inhibition of sphere-forming ability of cancer cells (Test Example 1). Type of experiment: cell-based. The following applies: Homo sapiens, 96 h; HCT-116 spheres, non-adherent, serum-free, 4 days, CellTiter-Glo; read-out: Sphere IC50 value (concentration for 50% inhibition of cell proliferation). Here is the method: (§1) HCT-116 cells were available from the American Type Culture Collection (ATCC). HCT-116 cells were cultured at 37° C. and 5% CO2 using the McCoy's 5a medium containing 10% fetal bovine serum (FBS) and 1% penicillin/streptomycin. […] The test compounds were added into each well to adjust the final concentration of DMSO to 0.1%, and the cells were cultured for 4 days.
For orientation: Cellular ATP, detected with luciferase, serves as a proxy for viable cell number.

Experiment [2] has as its system HCT-116 cells. The experiment in a line: Test for inhibiting sphere-forming ability of cancer cells in the presence of BSA (Test Example 2). The following applies: Homo sapiens, 96 h; HCT-116 spheres, 5% bovine serum albumin (BSA), 4 days, CellTiter-Glo; read-out: Sphere IC50 value (concentration for 50% inhibition of cell proliferation). Type of experiment: cell-based. As for the experimental part:
as §1

On to `O=C(Nc1cn(Cc2cccc(C(F)(F)F)c2)cn1)c1ccc(CO)cn1` [Example 1, 5-(Hydroxymethyl)-N-{1-[3-(trifluoromethyl)benzyl]-1H-imidazol-4-yl}picolinamide], for which the IC50 in experiment [1] came out at 0.03 µM; in experiment [2], 0.35 µM.

For the compound `O=C(COc1ccc(CO)nc1)Nc1cn(Cc2cc(F)c(F)c(F)c2)cn1` [Example 2], the results for the IC50 in experiment [1] and in experiment [2] were 0.629 µM and 0.605 µM, respectively.

With `O=C(Nc1nc(CO)cs1)c1cn(Cc2cc(F)c(F)c(F)c2)cn1` [Example 3], the figures for the IC50 in experiment [1] and in experiment [2] were less than 0.01 µM and 0.051 µM, respectively.

Turning to `[2H]C([2H])(O)c1ccc(C(=O)Nc2cn(Cc3cccc(C(F)(F)F)c3)cn2)cn1` [Example 4, 6-[Hydroxy (^2H2)methyl]-N-{1-[3-(trifluoromethyl)benzyl]-1H-imidazol-4-yl}nicotinamide], the IC50 in experiment [1] is less than 0.01 µM; in experiment [2] it was 0.061 µM.

For `CC(C)(O)c1ccc(C(=O)Nc2cn(Cc3cccc(C(F)(F)F)c3)cn2)cn1` [Example 5, 6-(2-Hydroxypropan-2-yl)-N-{1-[3-(trifluoromethyl)benzyl]-1H-imidazol-4-yl}nicotinamide], in experiment [1], the IC50 came to 8.4 µM.

For `CC(O)c1ccc(C(=O)Nc2cn(Cc3cccc(C(F)(F)F)c3)cn2)cn1` (stereo not drawn) [Example 6, 6-(1-Hydroxyethyl)-N-{1-[3-(trifluoromethyl)benzyl]-1H-imidazol-4-yl}nicotinamide], the IC50 turned out to be 3.65 µM in experiment [1] and 6.97 µM in experiment [2].

With `O=C(Nc1cn(Cc2cccc(C(F)(F)F)c2)cn1)c1csc(CO)n1` [Example 7], the results for the IC50 in experiment [1] and in experiment [2] were 0.024 µM and 0.52 µM, respectively.

As to `O=C(Nc1cn(Cc2cc(F)c(F)c(F)c2)cn1)c1csc(CO)n1` [Example 8], the IC50 in experiment [1] was 0.077 µM; in experiment [2] it was 0.578 µM.

In the case of `COCc1ccc(C(=O)Nc2cn(Cc3cccc(C(F)(F)F)c3)cn2)cn1` [Example 9], the IC50 in experiment [1] amounted to 5.04 µM.

On to `O=C(Nc1cn(Cc2cc(F)c(F)c(F)c2)cn1)c1ccc(CO)nc1` [Example 10, 6-(Hydroxymethyl)-N-[1-(3,4,5-trifluorobenzyl)-1H-imidazol-4-yl]nicotinamide], for which the IC50 in experiment [1] and in experiment [2] was 0.007 µM in each case.

As for `O=C(Nc1cn(Cc2cccc(Cl)c2)cn1)c1ccc(CO)nc1` [Example 11], the IC50 in experiment [1] was 0.056 µM.

For the compound `O=C(Nc1cn(Cc2cc(F)c(F)c(F)c2)cn1)c1ccc(CCO)nc1` [Example 13], the IC50 in experiment [1] was determined as 0.675 µM; in experiment [2], 0.735 µM.

In the case of `O=C(Nc1cn(Cc2cccc(C(F)(F)F)c2)cn1)c1ccc(/C=C/CO)nc1` [Example 14], in experiment [1], the IC50 stood at 6.04 µM.

Regarding `C=C(CO)c1ccc(C(=O)Nc2cn(Cc3cccc(C(F)(F)F)c3)cn2)cn1` [Example 15], the IC50 is 0.71 µM in experiment [1] and 5.77 µM in experiment [2].

In the case of `CCOCc1ccc(C(=O)Nc2cn(Cc3cc(F)c(F)c(F)c3)cn2)cn1` [Example 16], the results for the IC50 in experiment [1] and in experiment [2] were 0.892 µM and 1.45 µM, respectively.

Consider `O=C(Nc1cn(Cc2cccc(C(F)(F)F)c2)cn1)c1cnc(CO)c(C(F)(F)F)c1` [Example 19, 6-(hydroxymethyl)-5-(trifluoromethyl)-N-{1-[3-(trifluoromethyl)benzyl]-1H-imidazol-4-yl}nicotinamide], for which the values for the IC50 in experiment [1] and in experiment [2] were 0.07 µM and 0.403 µM, respectively.

Consider `O=C(Nc1cn(Cc2cccc(C(F)(F)F)c2)cn1)c1cnc(CO)cn1` [Example 20], for which the results for the IC50 in experiment [1] and in experiment [2] were 0.053 µM and 0.313 µM, respectively.

Regarding `O=C(Nc1cn(Cc2cccc(C(F)(F)F)c2)cn1)c1cc(CO)on1` [Example 21], the IC50 turned out to be 0.653 µM in experiment [1] and 0.767 µM in experiment [2].

For the compound `O=C(Nc1ccc(CO)nc1)c1cn(Cc2cc(F)c(F)c(F)c2)cn1` [Example 22, N-[6-(Hydroxymethyl)pyridin-3-yl]-1-(3,4,5-trifluorobenzyl)-1H-imidazole-4-carboxamide], the IC50 in experiment [1] and in experiment [2] was less than 0.01 µM in each case.

On to `O=C(Nc1ccc2nc(CO)ccc2c1)c1cn(Cc2cc(F)c(F)c(F)c2)cn1` [Example 23, N-[2-(hydroxymethyl)quinolin-6-yl]-1-(3,4,5-trifluorobenzyl)-1H-imidazole-4-carboxamide], for which the IC50 came out at 0.079 µM in experiment [1] and 0.084 µM in experiment [2].

Regarding `NCc1ccc(C(=O)Nc2cn(Cc3cccc(C(F)(F)F)c3)cn2)cn1` [Example 24, 6-(Aminomethyl)-N-{1-[3-(trifluoromethyl)benzyl]-1H-imidazol-4-yl}nicotinamide ditrifluoroacetate], the values for the IC50 in experiment [1] and in experiment [2] were 0.061 µM and 0.696 µM, respectively.

On to `CC(=O)NCc1ccc(C(=O)Nc2cn(Cc3cccc(C(F)(F)F)c3)cn2)cn1` [Example 25, 6-[(Acetylamino)methyl]-N-{1-[3-(trifluoromethyl)benzyl]-1H-imidazol-4-yl}nicotinamide], for which the values for the IC50 in experiment [1] and in experiment [2] were 4.48 µM and 4.97 µM, respectively.

With `CNCc1ccc(C(=O)Nc2cn(Cc3cccc(C(F)(F)F)c3)cn2)cn1` [Example 26, 6-[(Methylamino)methyl]-N-{1-[3-(trifluoromethyl)benzyl]-1H-imidazol-4-yl}nicotinamide], the IC50 in experiment [1] was found to be 0.824 µM.

In the case of `O=C(Nc1cn(Cc2cccc(C(F)(F)F)c2)cn1)c1cnc(C(O)CO)c(F)c1` (stereo not drawn) [Example 27], the IC50 in experiment [1] was found to be 0.695 µM; in experiment [2], 6.23 µM.

In the case of `O=C(Nc1cn(Cc2cccc(C(F)(F)F)c2)cn1)c1cnc(C(O)CO)c(Cl)c1` (stereo not drawn) [Example 28], the IC50 in experiment [1] was determined as 0.847 µM; in experiment [2], 4.58 µM.

`O=C(Nc1cn(Cc2cccc(C(F)(F)F)c2)cn1)c1cnc(C(O)CO)c(Br)c1` (stereo not drawn) [Example 29]: the IC50 in experiment [1] amounted to 0.633 µM; in experiment [2], 3.5 µM.

Take `O=C(Nc1cn(Cc2cccc(C(F)(F)F)c2)cn1)c1cnc(CO)c(F)c1` [Example 30, 5-Fluoro-6-(hydroxymethyl)-N-{1-[3-(trifluoromethyl)benzyl]-1H-imidazol-4-yl}nicotinamide]: the IC50 was found to be 0.069 µM in experiment [1] and 0.563 µM in experiment [2].

As for `O=C(Nc1cn(Cc2cccc(C(F)(F)F)c2)cn1)c1cnc(CO)c(Cl)c1` [Example 31], the IC50 in experiment [1] and in experiment [2] was less than 0.01 µM each time.

For the compound `O=C(Nc1cn(Cc2cccc(C(F)(F)F)c2)cn1)c1cnc(CO)c(Br)c1` [Example 32], the IC50 in experiment [1] was less than 0.01 µM; in experiment [2], 0.068 µM.

As for `COc1cc(C(=O)Nc2cn(Cc3cccc(C(F)(F)F)c3)cn2)cnc1CO` [Example 33], the IC50 in experiment [1] was 9.79 µM.

Regarding `Cc1nc(CO)ccc1C(=O)Nc1cn(Cc2cccc(C(F)(F)F)c2)cn1` [Example 34], in experiment [1], the IC50 is 7.39 µM.

Regarding `Cc1cc(CO)ncc1C(=O)Nc1cn(Cc2cccc(C(F)(F)F)c2)cn1` [Example 35], the values for the IC50 in experiment [1] and in experiment [2] were 3.76 µM and 6.11 µM, respectively.

For the compound `O=C(Nc1cn(Cc2cccc(C(F)(F)F)c2)cn1)c1cnc(CO)cc1Cl` [Example 36], the IC50 in experiment [1] was found to be 0.074 µM; in experiment [2], 0.481 µM.

`O=C(Nc1cn(Cc2cccc(C(F)(F)F)c2)cn1)c1coc(CO)n1` [Example 37]: the IC50 worked out at 0.238 µM in experiment [1] and 0.451 µM in experiment [2].

With `O=C(Nc1cn(Cc2cc(F)c(F)c(F)c2)cn1)c1cnc(CO)c(Br)c1` [Example 38], the IC50 in experiment [1] stood at 0.061 µM; in experiment [2], 0.081 µM.

For `O=C(Nc1cn(Cc2cccc(C(F)(F)F)c2)cn1)c1cnc(CO)s1` [Example 40, 2-(Hydroxymethyl)-N-{1-[3-(trifluoromethyl)benzyl]-1H-imidazol-4-yl}-1,3-thiazole-5-carboxamide], the IC50 in experiment [1] came to 0.122 µM; in experiment [2], 0.629 µM.

`O=C(Nc1cn(Cc2cc(F)c(F)c(F)c2)cn1)c1cnc(CO)c(Cl)c1` [Example 41, 5-Chloro-6-(hydroxymethyl)-N-[1-(3,4,5-trifluorobenzyl)-1H-imidazol-4-yl]nicotinamide]: the IC50 worked out at 0.051 µM in experiment [1] and 0.059 µM in experiment [2].

In the case of `Cc1cc(C(=O)Nc2cn(Cc3cccc(C(F)(F)F)c3)cn2)cnc1CO` [Example 42, 6-(Hydroxymethyl)-5-methyl-N-{1-[3-(trifluoromethyl)benzyl]-1H-imidazol-4-yl}nicotinamide], the IC50 was less than 0.01 µM in experiment [1] and 0.06 µM in experiment [2].

For `C=Cc1cc(C(=O)Nc2cn(Cc3cccc(C(F)(F)F)c3)cn2)cnc1CO` [Example 43, 5-Ethenyl-6-(hydroxymethyl)-N-{1-[3-(trifluoromethyl)benzyl]-1H-imidazol-4-yl}nicotinamide], the results for the IC50 in experiment [1] and in experiment [2] were 5.6 µM and 6.51 µM, respectively.

For `CCc1cc(C(=O)Nc2cn(Cc3cccc(C(F)(F)F)c3)cn2)cnc1CO` [Example 44, 5-Ethyl-6-(hydroxymethyl)-N-{1-[3-(trifluoromethyl)benzyl]-1H-imidazol-4-yl}nicotinamide], the IC50 in experiment [1] turned out to be 0.758 µM; in experiment [2], 5.11 µM.

For `Cc1sc(C(=O)Nc2cn(Cc3cc(F)c(F)c(F)c3)cn2)nc1CO` [Example 47, 4-(Hydroxymethyl)-5-methyl-N-[1-(3,4,5-trifluorobenzyl)-1H-imidazol-4-yl]-1,3-thiazole-2-carboxamide], the figures for the IC50 in experiment [1] and in experiment [2] were 0.669 µM and 5.46 µM, respectively.

As to `Cc1nc(C(=O)Nc2cn(Cc3cc(F)c(F)c(F)c3)cn2)sc1CO` [Example 48, 5-(Hydroxymethyl)-4-methyl-N-[1-(3,4,5-trifluorobenzyl)-1H-imidazol-4-yl]-1,3-thiazole-2-carboxamide], the values for the IC50 in experiment [1] and in experiment [2] were 0.095 µM and 0.571 µM, respectively.

Take `O=C(/C=C/c1ccc(CO)nc1)Nc1cn(Cc2cccc(C(F)(F)F)c2)cn1` [Example 51]: the IC50 was 0.07 µM in experiment [1] and 0.63 µM in experiment [2].

As for `O=C(/C=C/c1cnc(CO)c(Cl)c1)Nc1cn(Cc2cccc(C(F)(F)F)c2)cn1` [Example 52], the IC50 in experiment [1] was 0.05 µM; in experiment [2] it was 0.41 µM.
